Measured values as given in patent publication US10670605B2, “Cysteine reactive probes and uses thereof” (The Scripps Research Institute, priority 2015, dated 2020).
“And” between values parts separate entries of the source, which are not always exact repeats. Equal entries are not always repeated.

Assays:
Test in all cases: Competitive isoTOP-ABPP, cell lysates
Assay type in all cases: binding
PRMT1 C109 (Q99873) = PRMT1 C109 (Q99873) (Homo sapiens, UniProt Q99873); settings: for isoTOP-ABPP ratio, Q99873_C109: 500 μM, invitro; for isoTOP-ABPP reactivity ratio, Q99873_C109: 500 μm
Sequence of PRMT1 C109 (Q99873) (Q99873 whole entry): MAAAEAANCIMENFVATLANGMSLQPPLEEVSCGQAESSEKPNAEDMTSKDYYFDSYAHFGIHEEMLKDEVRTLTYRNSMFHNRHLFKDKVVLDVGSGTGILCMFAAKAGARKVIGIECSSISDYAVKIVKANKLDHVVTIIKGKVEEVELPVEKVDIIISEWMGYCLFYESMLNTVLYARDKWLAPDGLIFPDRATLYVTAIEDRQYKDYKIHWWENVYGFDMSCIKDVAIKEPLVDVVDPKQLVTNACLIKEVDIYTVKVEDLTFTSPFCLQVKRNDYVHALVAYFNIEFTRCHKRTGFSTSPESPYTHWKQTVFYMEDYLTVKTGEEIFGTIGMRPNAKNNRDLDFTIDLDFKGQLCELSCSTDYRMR

XPO1 C528 (O14980) = XPO1 C528 (O14980) (Homo sapiens, UniProt O14980); settings: for isoTOP-ABPP reactivity ratio, O14980_C528: 500 μm
Sequence of XPO1 C528 (O14980) (O14980 whole entry): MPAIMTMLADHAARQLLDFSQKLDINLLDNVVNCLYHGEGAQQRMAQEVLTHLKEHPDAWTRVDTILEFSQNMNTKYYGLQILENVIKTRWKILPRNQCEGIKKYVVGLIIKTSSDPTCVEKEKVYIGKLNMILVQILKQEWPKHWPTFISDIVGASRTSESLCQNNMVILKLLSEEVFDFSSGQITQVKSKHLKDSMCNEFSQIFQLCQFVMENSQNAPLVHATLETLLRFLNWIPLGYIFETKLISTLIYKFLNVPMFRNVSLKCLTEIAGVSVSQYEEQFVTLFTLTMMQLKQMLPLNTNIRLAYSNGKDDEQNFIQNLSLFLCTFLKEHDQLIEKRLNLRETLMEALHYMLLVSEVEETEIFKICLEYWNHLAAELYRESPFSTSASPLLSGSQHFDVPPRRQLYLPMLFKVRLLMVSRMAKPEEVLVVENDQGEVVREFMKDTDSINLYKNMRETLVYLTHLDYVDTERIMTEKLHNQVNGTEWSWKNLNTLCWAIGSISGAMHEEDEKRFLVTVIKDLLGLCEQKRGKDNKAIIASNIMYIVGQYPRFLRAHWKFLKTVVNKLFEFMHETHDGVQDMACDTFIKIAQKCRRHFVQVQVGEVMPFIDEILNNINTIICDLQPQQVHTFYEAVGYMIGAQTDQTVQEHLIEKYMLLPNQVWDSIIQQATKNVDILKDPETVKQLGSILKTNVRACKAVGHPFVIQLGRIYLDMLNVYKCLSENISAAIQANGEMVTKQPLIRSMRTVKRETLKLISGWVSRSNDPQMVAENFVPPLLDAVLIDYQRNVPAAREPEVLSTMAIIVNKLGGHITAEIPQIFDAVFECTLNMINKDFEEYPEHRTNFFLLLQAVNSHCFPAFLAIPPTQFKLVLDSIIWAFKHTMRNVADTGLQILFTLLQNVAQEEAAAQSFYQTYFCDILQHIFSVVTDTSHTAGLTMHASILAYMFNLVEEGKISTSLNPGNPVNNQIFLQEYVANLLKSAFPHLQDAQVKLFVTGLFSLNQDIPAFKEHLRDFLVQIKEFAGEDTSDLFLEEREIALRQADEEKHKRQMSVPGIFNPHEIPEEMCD

PCK2 C306 (Q16822) = target: T1, PCK2 C306 (Q16822) (Homo sapiens, UniProt Q16822); settings: for isoTOP-ABPP ratio, Q16822_C306: 500 μM, invitro; for isoTOP-ABPP reactivity ratio, Q16822_C306: 500 μm
T1 sequence (Q16822 33-640): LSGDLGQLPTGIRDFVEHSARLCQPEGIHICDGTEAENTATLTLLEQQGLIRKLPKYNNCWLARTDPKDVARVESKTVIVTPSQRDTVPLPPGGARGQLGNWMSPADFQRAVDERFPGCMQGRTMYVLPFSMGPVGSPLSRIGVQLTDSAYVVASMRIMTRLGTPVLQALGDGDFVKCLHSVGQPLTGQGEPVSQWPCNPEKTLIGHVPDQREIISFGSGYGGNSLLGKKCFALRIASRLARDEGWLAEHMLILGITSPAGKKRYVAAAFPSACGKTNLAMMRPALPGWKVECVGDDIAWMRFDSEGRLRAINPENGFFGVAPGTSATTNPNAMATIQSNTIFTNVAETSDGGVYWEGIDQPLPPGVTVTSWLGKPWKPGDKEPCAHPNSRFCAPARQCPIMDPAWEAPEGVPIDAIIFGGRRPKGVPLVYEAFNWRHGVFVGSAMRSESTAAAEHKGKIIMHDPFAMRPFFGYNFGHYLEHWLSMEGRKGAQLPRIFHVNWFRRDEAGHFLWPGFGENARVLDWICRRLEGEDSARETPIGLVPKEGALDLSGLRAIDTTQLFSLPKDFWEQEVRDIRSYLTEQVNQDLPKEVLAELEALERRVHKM

ADA C75 (P00813) = target: T2, ADA C75 (P00813) (Homo sapiens, UniProt P00813); settings: for isoTOP-ABPP reactivity ratio, P00813_C75: 500 μm, in-vitro_ramos
T2 sequence (P00813 1-363): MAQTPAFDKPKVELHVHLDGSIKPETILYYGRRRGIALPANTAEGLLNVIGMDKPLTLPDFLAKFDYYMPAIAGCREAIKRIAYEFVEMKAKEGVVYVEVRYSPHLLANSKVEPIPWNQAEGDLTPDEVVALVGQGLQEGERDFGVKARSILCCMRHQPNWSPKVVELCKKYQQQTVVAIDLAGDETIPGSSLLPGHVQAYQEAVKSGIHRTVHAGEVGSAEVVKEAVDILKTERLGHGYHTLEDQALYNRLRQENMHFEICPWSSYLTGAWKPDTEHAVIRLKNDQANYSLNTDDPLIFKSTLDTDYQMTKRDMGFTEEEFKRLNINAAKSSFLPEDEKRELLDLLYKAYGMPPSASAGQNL

ACAT1 C119 (P24752) = target: T3, ACAT1 C119 (P24752) (Homo sapiens, UniProt P24752); settings: for isoTOP-ABPP ratio P24752_C119: 500 μM, invitro; for isoTOP-ABPP reactivity ratio, P24752_C119: 500 μm
T3 sequence (P24752 34-427): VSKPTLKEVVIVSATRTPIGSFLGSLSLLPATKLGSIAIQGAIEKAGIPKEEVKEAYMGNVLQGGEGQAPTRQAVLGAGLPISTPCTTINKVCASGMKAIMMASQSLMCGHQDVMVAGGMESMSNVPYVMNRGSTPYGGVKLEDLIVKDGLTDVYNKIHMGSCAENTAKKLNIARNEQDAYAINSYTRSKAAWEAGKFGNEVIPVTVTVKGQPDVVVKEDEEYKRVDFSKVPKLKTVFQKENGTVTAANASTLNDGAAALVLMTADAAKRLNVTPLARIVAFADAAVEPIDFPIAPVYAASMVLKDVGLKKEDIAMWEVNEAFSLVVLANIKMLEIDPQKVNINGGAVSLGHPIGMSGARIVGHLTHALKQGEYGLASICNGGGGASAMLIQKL

isoTOP-ABPP ratio (reactivity profile), Q99873_C109 (PRMT1 C109 (Q99873); 500 μm in-vitro ramos) | isoTOP-ABPP ratio (reactivity profile), Q99873_C109 (PRMT1 C109 (Q99873); 500 μm in-vitro ramos_231) | isoTOP-ABPP ratio (reactivity profile), O14980_C528 (XPO1 C528 (O14980); 500 μm in-vitro ramos) | isoTOP-ABPP ratio (reactivity profile), O14980_C528 (XPO1 C528 (O14980); 500 μm in-vitro ramos_231) | isoTOP-ABPP ratio (reactivity profile), Q16822_C306 (PCK2 C306 (Q16822); 500 μm in-vitro ramos) | isoTOP-ABPP ratio (reactivity profile), Q16822_C306 (PCK2 C306 (Q16822); 500 μm in-vitro ramos_231) | isoTOP-ABPP ratio (reactivity profile), P00813_C75 (ADA C75 (P00813); 500 μm in-vitro ramos) | isoTOP-ABPP ratio (reactivity profile), P24752_C119 (ACAT1 C119 (P24752); 500 μm in-vitro ramos) | isoTOP-ABPP ratio (reactivity profile), P24752_C119 (ACAT1 C119 (P24752); 500 μm in-vitro ramos_231) | SMILES | also measured
 |  |  |  |  |  |  |  |  | O=C(CCl)NCCc1c[nH]c2ccccc12 [compound 13] | isoTOP-ABPP ratio, Q99873_C109 (PRMT1 C109 (Q99873); 231): 1.0; isoTOP-ABPP ratio, Q99873_C109 (PRMT1 C109 (Q99873); ramos): 0.9; isoTOP-ABPP ratio O14980_C528 (XPO1 C528 (O14980); 500 μM, invitro, ramos): 0.5; isoTOP-ABPP ratio, Q16822_C306 (PCK2 C306 (Q16822); 231): 0.9; isoTOP-ABPP ratio, Q16822_C306 (PCK2 C306 (Q16822); ramos): 1.0; isoTOP-ABPP ratio, P00813_C75 (ADA C75 (P00813); 500 μM, invitro, ramos): 0.9; isoTOP-ABPP ratio P24752_C119 (ACAT1 C119 (P24752); 231): 1.2; isoTOP-ABPP ratio P24752_C119 (ACAT1 C119 (P24752); ramos): 0.6
1.5 | 1.1 | 0.8 | 0.9 | 2.0 | 1.2 | 1.3 | 1.1 | 0.9 | O=C(CCl)NC12CC3CC(CC(C3)C1)C2 [compound 21] | 
1.0 | 0.8 | 2.9 |  |  | 3.0 | 1.1 | 2.0 | 1.7 | N#C/C(=C\c1cc(C(F)(F)F)cc(C(F)(F)F)c1)C(N)=O [compound 23] | 
1.0 | 0.7 and 0.9 | 0.8 | 1.2 and 0.9 | 1.1 | 1.4 and 1.5 | 1.0 | 1.0 | 0.9 and 1.0 | CC(C)CCOCCNC(=O)CCl [compound 27] | isoTOP-ABPP ratio (reactivity profile), P00813_C75 (ADA C75 (P00813); 500 μm in-vitro ramos_231): 1.1
 |  |  |  |  |  |  |  |  | C=CC(=O)N(Cc1cccnc1)c1cc(C(F)(F)F)cc(C(F)(F)F)c1 [compound 31] | isoTOP-ABPP reactivity ratio, Q99873_C109 (PRMT1 C109 (Q99873); in-vitro_ramos): 1.3; isoTOP-ABPP reactivity ratio, Q99873_C109 (PRMT1 C109 (Q99873); in-vitro_ramos_231): 1.0; isoTOP-ABPP reactivity ratio, O14980_C528 (XPO1 C528 (O14980); in-vitro_ramos): 3.2; isoTOP-ABPP reactivity ratio, O14980_C528 (XPO1 C528 (O14980); in-vitro_ramos_231): 5.2; isoTOP-ABPP reactivity ratio, Q16822_C306 (PCK2 C306 (Q16822); in-vitro_ramos): 1.2; isoTOP-ABPP reactivity ratio, Q16822_C306 (PCK2 C306 (Q16822); in-vitro_ramos_231): 1.9; isoTOP-ABPP reactivity ratio, P00813_C75 (ADA C75 (P00813)): 0.8; isoTOP-ABPP reactivity ratio, P24752_C119 (ACAT1 C119 (P24752); in-vitro_ramos): 0.7; isoTOP-ABPP reactivity ratio, P24752_C119 (ACAT1 C119 (P24752); in-vitro_ramos_231): 1.3
 |  |  |  |  |  |  |  |  | CC(C)(C)c1cc(NC(=O)CCl)on1 [compound 32] | isoTOP-ABPP reactivity ratio, Q99873_C109 (PRMT1 C109 (Q99873); in-vitro_ramos): 1.8; isoTOP-ABPP reactivity ratio, Q99873_C109 (PRMT1 C109 (Q99873); in-vitro_ramos_231): 1.7; isoTOP-ABPP reactivity ratio, O14980_C528 (XPO1 C528 (O14980); in-vitro_ramos): 1.2; isoTOP-ABPP reactivity ratio, O14980_C528 (XPO1 C528 (O14980); in-vitro_ramos_231): 1.7; isoTOP-ABPP reactivity ratio, Q16822_C306 (PCK2 C306 (Q16822); in-vitro_ramos_231): 3.2; isoTOP-ABPP reactivity ratio, P00813_C75 (ADA C75 (P00813)): 1.7; isoTOP-ABPP reactivity ratio, P24752_C119 (ACAT1 C119 (P24752); in-vitro_ramos): 1.3; isoTOP-ABPP reactivity ratio, P24752_C119 (ACAT1 C119 (P24752); in-vitro_ramos_231): 1.7

SMILES | isoTOP-ABPP ratio (reactivity profile), Q99873_C109 (PRMT1 C109 (Q99873); 500 μm in-vitro ramos) | isoTOP-ABPP ratio (reactivity profile), Q99873_C109 (PRMT1 C109 (Q99873); 500 μm in-vitro ramos_231) | isoTOP-ABPP ratio (reactivity profile), O14980_C528 (XPO1 C528 (O14980); 500 μm in-vitro ramos) | isoTOP-ABPP ratio (reactivity profile), O14980_C528 (XPO1 C528 (O14980); 500 μm in-vitro ramos_231) | isoTOP-ABPP ratio (reactivity profile), Q16822_C306 (PCK2 C306 (Q16822); 500 μm in-vitro ramos) | isoTOP-ABPP ratio (reactivity profile), Q16822_C306 (PCK2 C306 (Q16822); 500 μm in-vitro ramos_231) | isoTOP-ABPP ratio (reactivity profile), P00813_C75 (ADA C75 (P00813); 500 μm in-vitro ramos) | isoTOP-ABPP ratio (reactivity profile), P24752_C119 (ACAT1 C119 (P24752); 500 μm in-vitro ramos) | isoTOP-ABPP ratio (reactivity profile), P24752_C119 (ACAT1 C119 (P24752); 500 μm in-vitro ramos_231) | also measured
O=C(CCl)N1CCC(C(O)(c2ccccc2)c2ccccc2)CC1 [compound 20] | 2.2 | 1.9 | 4.0 | 1.4 | 1.6 | 2.5 | 1.5 | 2.6 | 3.6 | 
